Like-named read-outs stand apart in the source and are kept apart here.
Tests used:
[1] = tested on: MCF7 cells; experiment: FKBP dependence of Rapamycin/RapaLink-1 function in MCF7 cells; type: cell-based; conditions: MCF7 cells dosed at 50% confluency, 37° C., 24 h
Experimental: FIG. 4. […] MCF7 cells dosed at 50% confluency, 37° C., 24 h.

[2] = molecular target: T1, FKBP12 (Homo sapiens (Human), UniProt P62942); experiment: FKBP12 binding assay (fluorescence polarization)
[3] = tested on: p-S6 level in MCF7 cells; experiment: Western blot of p-S6 level in MCF7 cells after combination treatment with Rapa/Rapalink and candidate compound (blockade score); type: cell-based; conditions: 10 nM Rapalink + 10 μM candidate compound, 24 h, p-S6 level as fraction of DMSO control
[4] = tested on: mTOR signaling in brain and skeletal muscle; experiment: In vivo brain/periphery mTOR inhibition in mouse model, blocker combined with rapamycin or RapaLink-1
[5] = molecular target: KRAS^G12C and CypA (Homo sapiens (Human), UniProt P01116+P62937, G12C); experiment: Complex of labeled KRAS G12C with CypA; type: binding
[6] = tested on: 139 kinases captured by the probe in Jurkat cells; experiment: XO44 chemoproteomic probe kinome occupancy in live cells; type: cell-based; conditions: 100 nM, among 139 kinases captured by XO44 in Jurkat cells
[7] = tested on: K562 cells; experiment: Growth inhibition of K562 cells; type: cell-based
Source text: The unique dependency of FK506-dasatinib on FKBP proteins implied that it may be exploited to modulate the function of these molecules. […]. Meanwhile, the blocker compound […] dasatinib-treated samples (FIG. 13A, lanes 2 and 5). […].

[8] = tested on: Jurkat cells; experiment: Drug washout, phosphotyrosine recovery (residence time in cells); type: cell-based; conditions: 100 nM for 1 h, then drug removed
[9] = tested on: Jurkat cells; experiment: CD3 crosslinking (OKT3)-triggered T cell activation, phosphotyrosine Western blot; type: cell-based; conditions: for Total phospho-tyrosine level and phosphorylation of TCR signaling proteins: 100 nM
[10] = tested on: Ras•Raf; experiment: Ras•Raf binding pulldown; conditions: 100 nM KRAS
Experimental: FIG. 57. […] Pulldown conditions: 100 nM KRAS, 50 μg/mL BSA, 20 mM HEPES 7.5, 150 mM NaCl, 5 mM MgCl2, 1 mM […], 1% NP-40. GppNHp loaded proteins were prepared by EDTA-mediated nucleotide exchange.

[11] = molecular target: Ras•GDP / Sos (Homo sapiens (Human), UniProt P01112+P62937, M72C); experiment: HRAS/CypA ternary complex and Sos-mediated nucleotide exchange; type: biochemical
Experimental: FIG. 56. […] Assay conditions: 1 μM Ras•GDP, 1 μM Mant-GDP, 20 mM EPES 7.5, 150 mM NaCl, 10 mM EDTA or 1 μM Sos. 95A is synonymous to ZZY06-031.

[12] = molecular target: T1, FKBP12; experiment: FKBP12 binding
[13] = tested on: K562 cells; experiment: Growth inhibition of K562 cells; type: cell-based; remark: listed apart in the source
[14] = molecular target: DDR2 (Homo sapiens (Human), UniProt Q16832); experiment: In vitro kinase assay, ATP at apparent Km; type: biochemical
Chain of DDR2 (Q16832 22-855, species assumed): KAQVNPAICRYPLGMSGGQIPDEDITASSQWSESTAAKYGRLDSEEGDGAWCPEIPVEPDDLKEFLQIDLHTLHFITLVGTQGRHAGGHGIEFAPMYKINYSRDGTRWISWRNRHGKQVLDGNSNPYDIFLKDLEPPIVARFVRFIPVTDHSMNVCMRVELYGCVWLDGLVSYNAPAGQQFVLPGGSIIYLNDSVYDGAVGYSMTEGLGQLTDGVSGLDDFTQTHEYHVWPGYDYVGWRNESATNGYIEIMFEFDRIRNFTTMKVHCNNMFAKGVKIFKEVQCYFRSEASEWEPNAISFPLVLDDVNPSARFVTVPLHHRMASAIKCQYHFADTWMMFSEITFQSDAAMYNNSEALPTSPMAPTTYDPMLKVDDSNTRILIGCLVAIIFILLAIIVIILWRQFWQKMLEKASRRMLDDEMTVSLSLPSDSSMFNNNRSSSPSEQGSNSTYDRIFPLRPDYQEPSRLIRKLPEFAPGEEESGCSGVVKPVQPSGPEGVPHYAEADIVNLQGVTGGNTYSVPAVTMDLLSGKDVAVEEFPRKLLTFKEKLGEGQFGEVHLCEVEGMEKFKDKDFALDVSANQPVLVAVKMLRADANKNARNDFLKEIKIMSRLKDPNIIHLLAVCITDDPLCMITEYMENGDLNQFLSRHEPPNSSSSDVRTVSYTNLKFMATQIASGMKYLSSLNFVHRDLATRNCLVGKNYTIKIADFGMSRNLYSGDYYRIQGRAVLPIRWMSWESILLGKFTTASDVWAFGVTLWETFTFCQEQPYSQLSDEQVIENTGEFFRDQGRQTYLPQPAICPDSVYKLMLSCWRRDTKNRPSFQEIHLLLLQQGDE

[15] = molecular target: T2, Src kinase domain and FKBP12 (Homo sapiens (Human), UniProt P12931+P62942); experiment: Ternary complex formation by size exclusion chromatography; type: binding; conditions: ~50 kDa complex
T2 sequence (P12931 whole entry, looked up, species assumed, the tested form may be a part): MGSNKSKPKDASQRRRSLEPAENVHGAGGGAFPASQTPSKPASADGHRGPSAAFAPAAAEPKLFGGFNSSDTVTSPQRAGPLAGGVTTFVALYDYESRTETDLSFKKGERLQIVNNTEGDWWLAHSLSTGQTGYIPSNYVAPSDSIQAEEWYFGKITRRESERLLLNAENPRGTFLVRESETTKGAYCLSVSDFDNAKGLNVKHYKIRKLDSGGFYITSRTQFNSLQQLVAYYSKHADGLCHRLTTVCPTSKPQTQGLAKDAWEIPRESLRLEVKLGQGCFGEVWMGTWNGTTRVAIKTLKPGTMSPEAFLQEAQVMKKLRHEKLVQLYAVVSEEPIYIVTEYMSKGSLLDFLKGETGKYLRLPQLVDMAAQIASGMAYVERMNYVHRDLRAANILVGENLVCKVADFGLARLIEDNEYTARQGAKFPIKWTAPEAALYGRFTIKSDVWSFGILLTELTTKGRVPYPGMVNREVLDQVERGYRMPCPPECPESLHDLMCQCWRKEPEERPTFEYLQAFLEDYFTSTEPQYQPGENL
T2 sequence (P62942 whole entry, looked up, species assumed, the tested form may be a part): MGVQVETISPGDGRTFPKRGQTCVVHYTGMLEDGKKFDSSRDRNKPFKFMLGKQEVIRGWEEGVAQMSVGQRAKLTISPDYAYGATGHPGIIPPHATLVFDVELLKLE

[16] = molecular target: T2, Src kinase domain and FKBP12; experiment: Differential scanning fluorimetry; type: binding
[17] = molecular target: Src, Csk and DDR2
[18] = molecular target: Src (Homo sapiens (Human), UniProt P12931); type: biochemical
Chain of Src (P12931 whole entry, species assumed, the tested form may be a part): as the sequence (P12931 whole entry, looked up, species assumed, the tested form may be a part) above

[19] = molecular target: T2, Src kinase domain and FKBP12; experiment: Ternary complex formation of Src, FKBP12 and compound; type: binding
Experimental: Fractions of 0.5 mL were collected and analyzed by SDS-PAGE.
Pulldown was performed with Jurkat cell lysate (1 mg/mL, 200 μL), supplemented with 2 μg HA-FKBP12.

[20] = tested on: panel of 485 protein kinases; experiment: Kinase selectivity profiling; type: biochemical; conditions: 485 kinases, 10 nM inhibitor, 10 μM FKBP12
[21] = molecular target: Csk (Homo sapiens (Human), UniProt P41240); experiment: In vitro kinase assay, ATP at apparent Km; type: biochemical
Chain of Csk (P41240 whole entry, species assumed): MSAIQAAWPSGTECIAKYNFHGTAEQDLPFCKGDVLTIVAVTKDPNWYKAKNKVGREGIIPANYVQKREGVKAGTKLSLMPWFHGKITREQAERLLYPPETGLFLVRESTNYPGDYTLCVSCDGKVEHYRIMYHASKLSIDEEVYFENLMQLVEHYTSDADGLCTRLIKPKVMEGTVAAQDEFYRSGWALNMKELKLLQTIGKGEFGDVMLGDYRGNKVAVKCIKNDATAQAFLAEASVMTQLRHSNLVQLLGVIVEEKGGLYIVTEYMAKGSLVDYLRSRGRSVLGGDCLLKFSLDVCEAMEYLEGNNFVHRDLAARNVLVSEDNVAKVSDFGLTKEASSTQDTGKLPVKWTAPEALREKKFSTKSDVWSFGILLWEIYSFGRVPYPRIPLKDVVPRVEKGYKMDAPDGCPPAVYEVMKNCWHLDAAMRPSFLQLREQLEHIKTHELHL

[22] = molecular target: Src / HA-FKBP12 (Homo sapiens (Human), UniProt P12931+P62942); experiment: Co-immunoprecipitation of Src with HA-FKBP12 in Jurkat cell lysates; type: binding
Chain of Src / HA-FKBP12 (P12931 whole entry, looked up): as the sequence (P12931 whole entry, looked up, species assumed, the tested form may be a part) above
Chain of Src / HA-FKBP12 (P62942 whole entry, looked up): as the sequence (P62942 whole entry, looked up, species assumed, the tested form may be a part) above

[23] = tested on: p-Tyr signaling in Jurkat cells; experiment: Phosphotyrosine / TCR signaling in Jurkat cells (Western blot); type: cell-based
Experimental: Jurkat cells (1×10^6/mL) were treated with 100 nM of the indicated compounds for 1 h, then were washed 3 times with PBS and resuspended in culture media. Samples were taken at the indicated time points and lysed immediately.

[24] = tested on: glioblastoma PDX; conditions: mice; Fan, Q. et al., 2017, Cancer Cell; cited from earlier work
[25] = Jurkat cells stimulated with OKT3
[26] = 10 μM recombinant FKBP12 in assay buffer
[27] = standard assay conditions, no FKBP12

T1 sequence (P62942 whole entry): as the sequence (P62942 whole entry, looked up, species assumed, the tested form may be a part) above

CO[C@H]1C[C@@H]2CC[C@@H](C)[C@@](O)(O2)C(=O)C(=O)N2CCCC[C@H]2C(=O)O[C@H]([C@H](C)C[C@@H]2CC[C@@H](O)[C@H](OC)C2)CC(=O)[C@H](C)/C=C(\C)[C@@H](O)[C@@H](OC)C(=O)[C@H](C)C[C@H](C)/C=C/C=C/C=C/1C [Rapamycin, rapamycin]
dependence of function on FKBP [1]: FKBP is essential for the function

CO[C@H]1C/C(C)=C/[C@@H](CCCc2cccc[n+]2[O-])C(=O)C[C@H](O)[C@@H](C)[C@@H](/C(C)=C/[C@@H]2CC[C@@H](O)[C@H](OC)C2)OC(=O)[C@@H]2CCCCN2C(=O)C(=O)[C@]2(O)O[C@H]([C@@H](OC)C1)[C@@H](OC)C[C@H]2C [ZZY05-092 / ZZY06-041]
Kd ([2]; read-out: Kd FKBP12): 2.5 nM
RapaLink-1 Blockade [3]: 3 (>70%)
In Vivo ([4]; 1 mg/kg Rapalink-1 + 40 mg/kg compound, muscle and brain): Dose: 1 mg/kg Rapalink-1 + 40 mg/kg ZZY05- 092 Blocks Rapalink-1 in muscle; Potentiates Rapalink-1 in brain

C=CC(=O)N1CCN(c2nc(NCCC(=O)NCCNC(=O)CCC[C@@H](C)[C@@H](O)[C@H]3C(=O)N[C@@H](CC)C(=O)N(C)CC(=O)N(C)[C@@H](CC(C)C)C(=O)N[C@@H](C(C)C)C(=O)N(C)[C@@H](CC(C)C)C(=O)N[C@@H](C)C(=O)N[C@H](C)C(=O)N(C)[C@@H](CC(C)C)C(=O)N(C)[C@@H](CC(C)C)C(=O)N(C)[C@@H](C(C)C)C(=O)N3C)nc3c(F)c(-c4c(O)cccc4F)c(Cl)cc23)CC1 [ZZY07-014]
melting curve of KRAS•CypA•compound complex [5]: 2-stage melting curve

Cc1nc(Nc2ncc(C(=O)Nc3c(C)cccc3Cl)s2)cc(N2CCN(CCO)CC2)n1 [Dasatinib, dasatinib, reference compound]
Number of kinases inhibited >70% [6]: 9
IC50 ([7]; Homo sapiens, K562, absent ZZY05-026 (RapaBlock)): 0.063 nM
IC50 ([7]; Homo sapiens, K562, with 10 μM RapaBlock): 0.16 nM
Time after drug washout to restored phosphotyrosine signal [8]: ≤ 1 h
Total phospho-tyrosine level and phosphorylation of TCR signaling proteins [9, 25]: dampened

C=CC(=O)Nc1cc(Cl)cc(NC(=O)c2cnn(-c3ccc(OCC(=O)N4CCN(C(=O)CCC[C@@H](C)[C@@H](O)[C@H]5C(=O)N[C@@H](CC)C(=O)N(C)CC(=O)N(C)[C@@H](CC(C)C)C(=O)N[C@@H](C(C)C)C(=O)N(C)[C@@H](CC(C)C)C(=O)N[C@@H](C)C(=O)N[C@H](C)C(=O)N(C)[C@@H](CC(C)C)C(=O)N(C)[C@@H](CC(C)C)C(=O)N(C)[C@@H](C(C)C)C(=O)N5C)CC4)cc3)c2C(F)(F)F)c1 [ZZY08-058]
Ras•Raf binding of HRAS•CypA•compound ternary complex [10]: does not seem to impair Ras•Raf binding
ternary complex formation with HRAS and CypA [11]: forms a ternary complex
Sos-mediated nucleotide exchange ([11]; 1 μM Ras•GDP, 1 μM Mant-GDP, 10 mM EDTA or 1 μM Sos): inhibits Sos-mediated nucleotide exchange

CO[C@H]1C[C@@H](C)C/C(C)=C/[C@@H](CCCC(=O)N2CCN(c3cc(Nc4ncc(C(=O)Nc5c(C)cccc5Cl)s4)nc(C)n3)CC2)C(=O)C[C@H](O)[C@@H](C)[C@@H](/C(C)=C/[C@@H]2CC[C@@H](O)[C@H](OC)C2)OC(=O)[C@@H]2CCCCN2C(=O)C(=O)[C@]2(O)O[C@H]1[C@@H](OC)C[C@H]2C [FK506-dasatinib]
FKBP12 binding [12]: maintains potent FKBP12 binding
concentration inhibiting growth of K562 cells [13]: sub-nanomolar
growth inhibitory activity in presence of RapaBlock ([13]; with RapaBlock): diminished by RapaBlock
Number of kinases inhibited >70% [6]: 9
Kd ([2]; fluorescence polarization assay, read-out: Kd (binding to FKBP12)): 23 nM
Extent of kinase inhibition at 1 μM ([14]; 10 μM recombinant FKBP12, 1 μM inhibitor): failing to fully inhibit
Potency of inhibition upon FKBP12 supplementation [14, 26]: inferior to dasatinib
IC50 compared to dasatinib [14, 27]: more than ten-fold greater
Complex formation of Src kinase domain and FKBP12 [15]: induced the formation of a stable complex
Stabilization of both proteins toward thermal denaturation [16]: to a greater extent than dasatinib alone
kinase inhibition [17]: attenuated kinase inhibition
Potency of inhibition upon FKBP12 supplementation [18, 26]: equipotent
IC50 compared to dasatinib [18, 27]: more than ten-fold greater
ternary complex formation [19]: forms a stable ternary complex
Number of kinases inhibited >70% by both inhibitors [20]: 23
Potency of inhibition upon FKBP12 supplementation [21, 26]: equipotent
IC50 compared to dasatinib [21, 27]: more than ten-fold greater
Fold increase of IC50 on addition of RapaBlock ([7]; 10 μM RapaBlock): > 200 fold
IC50 ([7]; absent ZZY05-026 (RapaBlock)): 0.053 nM
IC50 ([7]; with 10 μM RapaBlock): 10.2 nM
Co-immunoprecipitation of Src with HA-FKBP12 [22]: co-immunoprecipitated
Time after drug washout to restored phosphotyrosine signal [8]: > 24 h
Inhibition of phosphotyrosine signaling in the presence of blocker ([9]; 100 nM FK506-dasatinib + 10 μM RapaBlock): completely neutralized
Total phospho-tyrosine level and phosphorylation of TCR signaling proteins [9, 25]: dampened
Lowest effective concentration [9, 25]: ≤ 10 nM
EC50 ([9]; Jurkat cells stimulated with OKT3, read-out: EC50 (phosphotyrosine signal)): 3.4 nM
inhibition of TCR signaling / cellular activity [23]: potently inhibits TCR signaling
cellular retention time ([23]; Jurkat cells, 1 h treatment then washout, monitored over 24 h): long cellular retention time

CO[C@H]1C/C(C)=C/[C@@H](CCCc2ccccn2)C(=O)C[C@H](O)[C@@H](C)[C@@H](/C(C)=C/[C@@H]2CC[C@@H](O)[C@H](OC)C2)OC(=O)[C@@H]2CCCCN2C(=O)C(=O)[C@]2(O)O[C@H]([C@@H](OC)C1)[C@@H](OC)C[C@H]2C [ZZY05-085]
Kd [2]: 1.5 nM
RapaLink-1 Blockade [3]: 3 (>70%)
In Vivo ([4]; combination with Rapalink-1, dose not given, brain): Appears to have blocked Rapalink-1 in brain

CO[C@@H]1C[C@@H]2CC[C@@H](C)[C@@](O)(O2)C(=O)C(=O)N2CCCC[C@@H]2C(=O)O[C@H]([C@H](C)C[C@H]2CC[C@H](OCCOCc3cn(CCOCCOCCOCCOCCOCCOCCOCCOCCC(=O)NCCCCn4nc(-c5ccc6oc(N)nc6c5)c5c(N)ncnc54)nn3)[C@H](OC)C2)CC(=O)[C@H](C)/C=C(\C)[C@H](O)[C@@H](OC)C(=O)[C@H](C)C[C@H](C)/C=C/C=C/C=C/1C [RapaLink-1]
growth of glioblastoma PDX [24]: suppresses growth
dependence of function on FKBP [1]: FKBP is essential for the function

From patent US12558356B2, “Immunophilin binding agents and uses thereof” (The Regents of the University of California, priority 2019, dated 2026)
